Results published in ChEMBL document CHEMBL5532661, “Discovery of a Novel Glucagon-like Peptide-1 (GLP-1) Analogue from Bullfrog and Investigation of Its Potential for Designing GLP-1-Based Multiagonists” (J Med Chem, 2024).
Calls of active or inactive are those of the source. No cut-off for these calls is given here. Numbered stars: 1 amine (or outer) side, 2 acyl side, 3 side chain; on linkers, the order of the positions; unused ones are H or OH. Square brackets hold non-standard residues; d marks the D form. Side chains are listed from the residue outwards. Peptide text beside a SMILES is read from it. * marks the point of attachment. C18 diacid = O=C(O)CCCCCCCCCCCCCCCCC(=O)*; γGlu = O=C(O)[C@H](CCC(=O)[*:2])N[*:1]; AEEA = NCCOCCOCC(=O)O; Aib = CC(C)(N)C(=O)O

What was measured:
[1] = tested on: Mus musculus; test: Reduction in serum AST in DIO mouse at 30 nmol/kg, sc treated every 2 and half day once measured after 21 days; type: functional, organism-based; conditions: time 21.0 day
[2] = target: T1, Glucagon-like peptide 1 receptor (Homo sapiens, UniProt P43220); test: Agonist activity at human GLP-1 receptor expressed in HEK293 cells assessed as cAMP level measured after 60 mins by HTRF based assay; type: functional, cell-based
[3] = tested on: Mus musculus; test: Hypoglycemic effect in ICR mouse treated with 3 g/kg glucose assessed as reduction in blood glucose level at 10 nmol/kg, sc measured upto 120 mins by acute glucose lowering test; type: functional, organism-based
[4] = tested on: Mus musculus; test: Reduction in body weight in DIO mouse at 30 nmol/kg, sc treated every 2 and half day once measured after 21 days; type: functional; parameters: scale not given: the % may be the effect or the level left; conditions: time 21 day
[5] = target: T2, Gastric inhibitory polypeptide receptor (Homo sapiens, UniProt P48546); test: Agonist activity at human GIPR receptor expressed in HEK293 cells assessed as cAMP level measured after 60 mins by HTRF based assay; type: functional, cell-based
T2 sequence (P48546 whole entry): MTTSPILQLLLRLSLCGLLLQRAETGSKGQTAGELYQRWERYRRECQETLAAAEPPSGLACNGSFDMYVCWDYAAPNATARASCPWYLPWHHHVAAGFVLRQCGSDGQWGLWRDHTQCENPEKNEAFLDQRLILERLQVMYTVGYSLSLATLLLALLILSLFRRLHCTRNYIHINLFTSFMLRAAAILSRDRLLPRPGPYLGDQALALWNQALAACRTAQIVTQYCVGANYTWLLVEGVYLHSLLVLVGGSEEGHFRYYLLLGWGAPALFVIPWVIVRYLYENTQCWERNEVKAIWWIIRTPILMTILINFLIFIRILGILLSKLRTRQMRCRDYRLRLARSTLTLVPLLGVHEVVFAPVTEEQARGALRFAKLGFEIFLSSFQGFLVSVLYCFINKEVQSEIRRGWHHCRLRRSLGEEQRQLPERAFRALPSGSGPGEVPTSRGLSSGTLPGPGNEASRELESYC

[6] = target: Glucagon receptor (Mus musculus) (UniProt Q61606); test: Agonist activity at mouse GCGR receptor expressed in HEK293 cells assessed as cAMP level measured after 60 mins by HTRF based assay; type: functional, cell-based; conditions: filed as agonist
[7] = tested on: Mus musculus; test: Hypoglycemic effect in ICR mouse treated with 3 g/kg glucose assessed as reduction in blood glucose level at 30 nmol/kg, sc measured upto 120 mins pretreated with GLP-1R and GIPR antagonist by OGTT; type: functional, organism-based
[8] = tested on: Mus musculus; test: Anorexigenic effect in ICR mouse assessed as decrease in food intake at 10 nmol/kg, sc measured upto 72 hrs by acute food intake study; type: functional, organism-based
[9] = tested on: Mus musculus; test: Reduction in feed intake in DIO mouse at 30 nmol/kg, sc treated twice a day measured after 21 days; type: functional, organism-based; conditions: time 21.0 day
[10] = tested on: Mus musculus; test: Antihyperglycemic effect in DIO mouse assessed as antihyperglycemic duration by measuring blood glucose at 30 nmol/kg, sc administered twice daily measured by hypoglycemic duration assay; type: functional, organism-based
[11] = tested on: Mus musculus; test: Antihyperglycemic effect in DIO mouse assessed as prolonged antihyperglycemic duration by measuring blood glucose at 100 nmol/kg, sc; type: functional, organism-based
[12] = target: T3, Glucagon-like peptide 1 receptor (Mus musculus) (UniProt O35659); test: Potency index, ratio of GLP-1 EC50 to test compound EC50 for agonist activity at mouse GLP-1 receptor expressed in HEK293 cells assessed as cAMP level measured after 60 mins by HTRF based assay; type: functional, cell-based; conditions: filed as agonist
T3 sequence (whole entry): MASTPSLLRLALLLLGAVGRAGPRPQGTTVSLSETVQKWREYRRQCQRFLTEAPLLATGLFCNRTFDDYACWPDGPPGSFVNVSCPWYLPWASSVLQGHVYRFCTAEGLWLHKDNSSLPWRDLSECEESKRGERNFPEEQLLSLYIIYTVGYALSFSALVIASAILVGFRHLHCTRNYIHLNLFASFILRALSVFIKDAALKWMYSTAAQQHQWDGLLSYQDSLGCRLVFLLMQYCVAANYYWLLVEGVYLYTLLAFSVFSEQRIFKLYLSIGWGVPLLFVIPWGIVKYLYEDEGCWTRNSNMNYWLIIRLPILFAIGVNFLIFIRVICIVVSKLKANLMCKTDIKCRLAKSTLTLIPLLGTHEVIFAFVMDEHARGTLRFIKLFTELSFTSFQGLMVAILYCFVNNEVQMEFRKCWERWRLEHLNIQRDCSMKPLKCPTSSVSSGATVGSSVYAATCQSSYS

[13] = target: T4, Gastric inhibitory polypeptide receptor (Homo sapiens) (UniProt P48546); test: Agonist activity at human GIPR receptor expressed in HEK293 cells assessed as cAMP level by measuring relative percent (GIP EC50/compound EC50) measured after 60 mins by HTRF based assay relative to GIP; type: functional, cell-based
T4 sequence (whole entry): T2 sequence (P48546 whole entry)

[14] = target: T5, Glucagon receptor (Homo sapiens, UniProt P47871); test: Agonist activity at human GCGR expressed in HEK293 cells assessed as cAMP level measured after 60 mins by HTRF based assay; type: functional, cell-based
[15] = tested on: Mus musculus; test: Reduction in serum triglyceride in DIO mouse at 30 nmol/kg, sc treated every 2 and half day once measured after 21 days; type: functional, organism-based; conditions: time 21.0 day
[16] = tested on: Mus musculus; test: Anorexigenic effect in ICR mouse assessed as decrease in food intake at 30 nmol/kg, sc measured upto 72 hrs by acute food intake study; type: functional, organism-based
[17] = target: T5, Glucagon receptor; test: Agonist activity at human GCGR expressed in HEK293 cells assessed as cAMP level by measuring relative percent (glucagon EC50/compound EC50) measured after 60 mins by HTRF based assay relative to glucagon; type: functional, cell-based; conditions: filed as agonist
[18] = target: T1, Glucagon-like peptide 1 receptor; test: Agonist activity at human GLP-1 receptor expressed in HEK293 cells assessed as cAMP level by measuring relative percent (GLP-1 EC50/compound EC50) measured after 60 mins by HTRF based assay relative to GLP-1; type: functional, cell-based; conditions: filed as agonist
[19] = tested on: Mus musculus; test: Reduction in total cholesterol in DIO mouse at 30 nmol/kg, sc treated every 2 and half day once measured after 21 days; type: functional, organism-based; conditions: time 21.0 day
[20] = tested on: Mus musculus; test: Reduction in hepatic lipid content in DIO mouse at 30 nmol/kg, sc treated every 2 and half day once measured after 21 days by H and E staining based assay; type: functional, organism-based; conditions: time 21.0 day
[21] = tested on: Mus musculus; test: Reduction in serum ALT in DIO mouse at 30 nmol/kg, sc treated every 2 and half day once measured after 21 days; type: functional, organism-based; conditions: time 21.0 day
[22] = target: T3, Glucagon-like peptide 1 receptor (Mus musculus); test: Agonist activity at mouse GLP-1 receptor expressed in HEK293 cells assessed as cAMP level measured after 60 mins by HTRF based assay; type: functional, cell-based; conditions: filed as agonist
[23] = tested on: Mus musculus; test: Hypoglycemic effect in ICR mouse treated with 3 g/kg glucose assessed as reduction in blood glucose level at 100 nmol/kg, sc measured upto 120 mins by acute glucose lowering test; type: functional, organism-based
[24] = tested on: Mus musculus; test: Antihyperglycemic effect in DIO mouse assessed as antihyperglycemic duration by measuring blood glucose at 30 nmol/kg, sc measured after 48 hrs by hypoglycemic duration assay; type: functional, organism-based
[25] = tested on: Mus musculus; test: Reduction in total fat mass in DIO mouse at 30 nmol/kg, sc treated every 2 and half day once measured after 21 days; type: functional, organism-based; conditions: time 21.0 day
[26] = target: Glucagon receptor (Mus musculus) (UniProt Q61606); test: Potency index, ratio of glucagon EC50 to test compound EC50 for agonist activity at mouse GCGR expressed in HEK293 cells assessed as cAMP level measured after 60 mins by HTRF based assay; type: functional, cell-based; conditions: filed as agonist
[27] = tested on: Mus musculus; test: Anorexigenic effect in sc dosed ICR mouse assessed as decrease in food intake measured upto 72 hrs by acute food intake study; type: functional, organism-based; conditions: dose 10-100 nmol/kg
[28] = tested on: Mus musculus; test: Reduction in blood glucose level in non-fasting DIO mouse at 30 nmol/kg, sc treated every 2 and half day once measured after 21 days by glucose tolerance test; type: functional, organism-based; conditions: time 21.0 day

T1 sequence (P43220 whole entry): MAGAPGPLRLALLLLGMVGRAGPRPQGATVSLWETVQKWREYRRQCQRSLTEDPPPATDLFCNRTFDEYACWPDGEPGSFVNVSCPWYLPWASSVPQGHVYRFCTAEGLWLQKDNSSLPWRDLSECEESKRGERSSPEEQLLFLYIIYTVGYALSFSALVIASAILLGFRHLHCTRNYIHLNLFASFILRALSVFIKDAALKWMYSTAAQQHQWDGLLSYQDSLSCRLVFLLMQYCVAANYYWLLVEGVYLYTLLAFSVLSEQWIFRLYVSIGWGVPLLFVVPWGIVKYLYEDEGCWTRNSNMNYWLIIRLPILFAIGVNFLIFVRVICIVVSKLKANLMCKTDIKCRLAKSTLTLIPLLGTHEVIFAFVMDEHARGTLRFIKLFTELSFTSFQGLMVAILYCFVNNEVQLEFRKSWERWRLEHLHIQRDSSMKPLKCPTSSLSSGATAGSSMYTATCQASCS
T5 sequence (P47871 whole entry): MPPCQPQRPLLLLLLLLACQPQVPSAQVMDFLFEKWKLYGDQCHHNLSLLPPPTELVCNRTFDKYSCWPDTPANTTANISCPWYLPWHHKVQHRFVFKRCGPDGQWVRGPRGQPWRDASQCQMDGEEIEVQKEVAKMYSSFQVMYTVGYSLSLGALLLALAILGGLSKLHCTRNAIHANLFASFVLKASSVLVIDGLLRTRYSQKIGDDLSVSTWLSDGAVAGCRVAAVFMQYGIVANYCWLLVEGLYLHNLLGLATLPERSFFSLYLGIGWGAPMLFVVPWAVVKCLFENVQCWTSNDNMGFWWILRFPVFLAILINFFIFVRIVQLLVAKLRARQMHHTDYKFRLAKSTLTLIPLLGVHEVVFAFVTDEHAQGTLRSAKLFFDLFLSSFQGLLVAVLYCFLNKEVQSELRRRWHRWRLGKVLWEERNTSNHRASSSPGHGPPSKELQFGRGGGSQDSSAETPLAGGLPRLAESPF
Glucagon receptor (Mus musculus), sequence (Q61606 whole entry): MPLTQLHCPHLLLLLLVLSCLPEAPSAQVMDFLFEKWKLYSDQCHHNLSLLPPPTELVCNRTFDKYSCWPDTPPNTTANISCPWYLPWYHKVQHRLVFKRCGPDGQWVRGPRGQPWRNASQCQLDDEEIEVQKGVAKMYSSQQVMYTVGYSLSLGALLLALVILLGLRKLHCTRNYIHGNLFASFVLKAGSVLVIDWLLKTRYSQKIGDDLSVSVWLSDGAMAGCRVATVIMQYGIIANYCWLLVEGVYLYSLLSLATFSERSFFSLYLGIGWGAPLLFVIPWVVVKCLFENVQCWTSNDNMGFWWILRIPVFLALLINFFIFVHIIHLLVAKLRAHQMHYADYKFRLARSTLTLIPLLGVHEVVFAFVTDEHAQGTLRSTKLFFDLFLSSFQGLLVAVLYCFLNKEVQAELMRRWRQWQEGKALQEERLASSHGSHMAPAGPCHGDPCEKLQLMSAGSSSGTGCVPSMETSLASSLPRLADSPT

CC[C@H](C)[C@H](NC(=O)[C@H](CCCCNC(=O)COCCOCCNC(=O)COCCOCCNC(=O)CC[C@H](NC(=O)CCCCCCCCCCCCCCCCC(=O)O)C(=O)O)NC(=O)[C@H](CCC(=O)O)NC(=O)[C@H](CC(C)C)NC(=O)[C@H](C)NC(=O)[C@H](CCCNC(=N)N)NC(=O)[C@H](CO)NC(=O)[C@H](CCSC)NC(=O)[C@H](CC(=O)O)NC(=O)[C@H](CO)NC(=O)[C@@H](NC(=O)[C@H](Cc1ccccc1)NC(=O)[C@@H](NC(=O)CNC(=O)[C@H](CCC(N)=O)NC(=O)C(C)(C)NC(=O)[C@@H](N)Cc1c[nH]cn1)[C@@H](C)O)[C@@H](C)O)C(=O)N[C@@H](C)C(=O)N[C@@H](C)C(=O)N[C@@H](CCCNC(=N)N)C(=O)N[C@@H](CC(C)C)C(=O)N[C@@H](Cc1ccccc1)C(=O)N[C@H](C(=O)N[C@@H](CC(=O)O)C(=O)N[C@@H](Cc1c[nH]c2ccccc12)C(=O)N[C@@H](CC(C)C)C(=O)N[C@H](C(=O)N[C@@H](CCC(=O)O)C(=O)NCC(=O)NCC(=O)N1CCC[C@H]1C(=O)N[C@@H](CO)C(=O)N[C@@H](CO)C(=O)NCC(=O)N[C@@H](C)C(=O)N1CCC[C@H]1C(=O)N1CCC[C@H]1C(=O)N1CCC[C@H]1C(=O)N[C@@H](CO)C(N)=O)[C@@H](C)CC)C(C)C (H-H[Aib]QGTFTSDMSRALEK([AEEA-AEEA-γGlu-C18 diacid])IAARLFVDWLIEGGPSSGAPPPS-NH2)
Activity [1]: Active | EC50 [2]: 0.012 nM | Activity [3]: Active | Activity [4]: 40.7% | EC50 [5]: 0.6 nM | Activity [6]: Active | Activity [7]: inactive | Activity [8]: Active | Activity [9]: Active | Activity [10]: Active | Activity [11]: Active | Ratio EC50 [12]: 1 | Activity [13]: 4% | EC50 [14]: 0.13 nM | Activity [15]: Active | Activity [16]: Active | Activity [17]: 71% | Activity [18]: 442% | Activity [19]: Active | Activity [20]: Active | Activity [21]: Active | Activity [22]: Active | Activity [23]: Active | Activity [24]: Active | Activity [25]: Active | Ratio EC50 [26]: 1 | Activity [27]: Dose-Dependent Effect | Activity [28]: Active
